These molecules were tested against T1, human A2a receptor (Homo sapiens, UniProt P29274) (assay: A2a receptor competition binding assay using Scintillation Proximity technology). Details: membranes from HEK293 cells expressing human A2a receptor; 0.5 nM tritiated radioligand; SPA beads; 1 h room temperature.
T1 construct: purchased Perkin-Elmer RBHA2AM400UA; host or cells: HEK293 cell membranes
How it was run: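 Membranes of HEK293 cells expressing human A2a, pretreated with adenosine deaminase, incubated 1 h at room temperature with 0.5 nM tritiated pyrazolotriazolopyrimidine antagonist (final) and compound (3000 to 0.15 nM) on WGA SPA beads in Ca/Mg-free PBS with 10 mM MgCl2. Ki from EC50 via Cheng-Prusoff.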

T1 sequence (P29274 whole entry): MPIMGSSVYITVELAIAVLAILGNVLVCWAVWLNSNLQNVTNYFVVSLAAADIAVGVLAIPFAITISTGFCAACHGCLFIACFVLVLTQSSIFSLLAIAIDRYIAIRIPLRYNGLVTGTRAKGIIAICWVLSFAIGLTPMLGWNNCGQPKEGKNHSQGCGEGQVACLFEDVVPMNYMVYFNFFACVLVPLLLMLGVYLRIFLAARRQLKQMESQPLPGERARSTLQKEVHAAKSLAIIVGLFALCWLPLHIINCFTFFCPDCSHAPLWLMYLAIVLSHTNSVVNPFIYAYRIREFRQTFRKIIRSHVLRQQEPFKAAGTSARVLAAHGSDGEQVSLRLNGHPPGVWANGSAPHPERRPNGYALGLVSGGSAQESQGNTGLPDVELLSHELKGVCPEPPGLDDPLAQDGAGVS

Point of comparison: `COc1cccc2c1nc(N)n1nc(CN3CCc4cccc(CN5CCN(c6ccccn6)CC5)c4C3)nc21` [Ex-126, 7-methoxy-2-((8-((4-(pyridin-2-yl)piperazin-1-yl)methyl)-3,4-dihydroisoquinolin-2(1H)-yl)methyl)-[1,2,4]triazolo[1,5-c]quinazolin-5-amine], EC50 31.6 nM. Against it:
- COc1cccc2c1nc(N)n1nc(CN3Cc4ccc(F)cc4C3)nc21 [Ex-117, 2-((5-fluoroisoindolin-2-yl)methyl)-7-methoxy-[1,2,4]triazolo[1,5-c]quinazolin-5-amine] — 5.4-fold lower, 5.9 nM
- COc1cccc2c1nc(N)n1nc(CN3Cc4cccnc4C3)nc21 [Ex-118, 2-((5H-pyrrolo[3,4-b]pyridin-6(7H)-yl)methyl)-7-methoxy-[1,2,4]triazolo[1,5-c]quinazolin-5-amine] — 5.9-fold lower, 5.4 nM
- COc1cccc2c1nc(N)n1nc(CN3CCCc4ccccc43)nc21 [Ex-119, 2-((3,4-dihydroquinolin-1(2H)-yl)methyl)-7-methoxy-[1,2,4]triazolo[1,5-c]quinazolin-5-amine] — 15-fold lower, 2.1 nM
- COc1cccc2c1nc(N)n1nc(CN3CCOc4ccccc43)nc21 [Ex-120, 2-((2H-benzo[b][1,4]oxazin-4(3H)-yl)methyl)-7-methoxy-[1,2,4]triazolo[1,5-c]quinazolin-5-amine] — 21-fold lower, 1.5 nM
- COc1cccc2c1nc(N)n1nc(CN3CCc4ccccc4C3)nc21 [Ex-121] — 40-fold lower, 0.8 nM
- COc1cccc2c1nc(N)n1nc(CN3CCc4cc(C#N)ccc4C3)nc21 [Ex-122, 2-((5-amino-7-methoxy-[1,2,4]triazolo[1,5-c]quinazolin-2-yl)methyl)-1,2,3,4-tetrahydroisoquinoline-6-carbonitrile] — 5.3-fold lower, 6 nM
- COc1cccc2c1nc(N)n1nc(CN3CCc4cccnc4C3)nc21 [Ex-123, 2-((5,6-dihydro-1,7-naphthyridin-7(8H)-yl)methyl)-7-methoxy-[1,2,4]triazolo[1,5-c]quinazolin-5-amine] — 5.6-fold lower, 5.6 nM
- COc1cccc2c1nc(N)n1nc(CN3CCc4ccncc4C3)nc21 [Ex-125, 2-((3,4-dihydro-2,7-naphthyridin-2(1H)-yl)methyl)-7-methoxy-[1,2,4]tri azolo[1,5-c]quinazolin-5-amine] — within 1.5-fold, 27.3 nM
- COc1cccc2c1nc(N)n1nc(CN3Cc4ccc(C(F)(F)F)cc4C3)nc21 [Ex-127, 7-methoxy-2-((2,3,4,5-(trifluoromethyl)isoindolin-2-yl)methyl)-[1,2,4]triazolo[1,5-c]quinazolin-5-amine] — 3.7-fold lower, 8.5 nM
- COc1cccc2c1nc(N)n1nc(CN3CCCCc4ccccc43)nc21 [Ex-128, 7-methoxy-2-((2,3,4,5-tetrahydro-1H-benzo[b]azepin-1-yl)methyl)-[1,2,4]biazolo[1,5-c]quinazolin-5-amine] — 16-fold lower, 2 nM
- COc1cccc2c1nc(N)n1nc(CN3CCc4ncc(C(F)(F)F)cc4C3)nc21 [Ex-129, 7-methoxy-2-((3-(trifluoromethyl)-7,8-dihydro-1,6-naphthyridin-6(5H)-yl)methyl)-[1,2,4]tria.zolo[1,5-c]quinazolin-5-amine] — within 1.5-fold, 40.8 nM
- COc1cccc2c1nc(N)n1nc(CN3CCc4cc(F)ccc4C3)nc21 [Ex-130, 2-((6-fluoro-3,4-dihydroisoquinolin-2(1H)-yl)methyl)-7-methoxy-[1,2,4]triazolo[1,5-c]quinazolin-5-amine] — 1.5-fold lower, 20.5 nM
- COc1cccc2c1nc(N)n1nc(CN3CCc4ccccc4CC3)nc21 [Ex-131, 2-((4,5-dihydro-1H-benzo[d]azepin-3(2H)-yl)methyl)-7-methoxy-[1,2,4]triazolo[1,5-c]quinazolin-5-amine] — 2-fold lower, 16 nM
- COc1cccc2c1nc(N)n1nc(CN3CCCc4ccccc4C3)nc21 [Ex-132, 2-((4,5-dihydro-1H-benzo[c]azepin-2(3H)-yl)methyl)-7-methoxy-[1,2,4]triazolo[1,5-c]quinazolin-5-amine] — 4-fold lower, 7.9 nM
- COc1cccc2c1nc(N)n1nc(CN3CCCc4ncccc43)nc21 [Ex-133, 2-((3,4-dihydro-1,5-naphthyridin-1(2H)-yl)methyl)-7-methoxy-[1,2,4]triazolo[1,5-c]quinazolin-5-amine] — within 1.5-fold, 27.8 nM
- COc1cccc2c1nc(N)n1nc(CN3CCCc4cnccc43)nc21 [Ex-134, 2-((3,4-dihydro-1,6-naphthyridin-1(2H)-yl)methyl)-7-methoxy-[1,2,4]triazolo[1,5-c]quinazolin-5-amine] — 4.7-fold lower, 6.7 nM
- COc1cccc2c1nc(N)n1nc(CN3CCCc4ccncc43)nc21 [Ex-135, 2-((3,4-dihydro-1,7-naphthyridin-1(2H)-yl)methyl)-7-methoxy-[1,2,4]triazolo[1,5-c]quinazolin-5-amine] — 2.7-fold lower, 11.8 nM
- COc1cccc2c1nc(N)n1nc(CN3CCN(C)Cc4cc(Cl)ccc43)nc21 [Ex-136, 2-((7-chloro-4-methyl-2,3,4,5-tetrahydro-1H-benzo[e][1,4]diazepin-1-yl)methyl)-7-methoxy-[1,2,4]triazolo[1,5-c]quinazolin-5-amine] — 6-fold higher, 191 nM
- COc1cccc2c1nc(N)n1nc(CN3Cc4ccc(Cl)nc4C3)nc21 [Ex-137] — 2-fold lower, 16.1 nM
- COc1cccc2c1nc(N)n1nc(CN3CCn4c(nnc4SC)C3)nc21 [Ex-138] — 4.6-fold higher, 146 nM
- CCOC(=O)c1nnc2n1CCN(Cc1nc3c4cccc(OC)c4nc(N)n3n1)C2 [Ex-139, ethyl 7-((5-amino-7-methoxy-[1,2,4]triazolo[1,5-c]quinazolin-2-yl)methyl)-5,6,7,8-tetrahydro-[1,2,4]triazolo[4,3-a]pyrazine-3-carboxylate] — 3.5-fold higher, 110 nM
- COc1cccc2c1nc(N)n1nc(CN3CCn4c(Br)nnc4C3)nc21 [Ex-140, 2-((3-bromo-5,6-dihydro-[1,2,4]triazolo[4,3-a]pyrazin-7(8H)-yl)methyl)-7-methoxy-[1,2,4]triazolo[1,5-c]quinazolin-5-amine] — 3.3-fold higher, 104 nM
- COc1cccc2c1nc(N)n1nc(CN3CCn4cnnc4C3)nc21 [Ex-141, 2-((5-dihydro-[1,2,4]triazolo[4,3-a]pyrazin-7(8H)-yl)methyl)-7-methoxy-[1,2,4]triazolo[1,5-c]quinazolin-5-amine] — 4.7-fold higher, 149 nM
- CCc1nnc2n1CCN(Cc1nc3c4cccc(OC)c4nc(N)n3n1)C2 [Ex-142, 2-((3-ethyl-5,6-dihydro-[1,2,4]triazolo[4,3-a]pyrazin-7(8H)-yl)methyl)-7-methoxy-[1,2,4]triazolo[1,5-c]quinazolin-5-amine] — 11-fold higher, 350 nM
- COc1cccc2c1nc(N)n1nc(CN3CCn4c(nnc4C(=O)NC(C)(C)C)C3)nc21 [Ex-143, 7-((5-amino-7-methoxy-[1,2,4]triazolo[1,5-c]quinazolin-2-yl)methyl)-N-tert-butyl-5,6,7,8-tetrahydro-[1,2,4]triazolo[4,3-a]pyrazine-3-carboxamide] — 2.4-fold higher, 74.4 nM
- COc1cccc2c1nc(N)n1nc(CN3CCn4c(nnc4OC)C3)nc21 [Ex-144, 7-methoxy-2-((3-methoxy-5,6-dihydro[1,2,4]triazolo[4,3-a]pyrazin-7(8H)-yl)methyl)[1,2,4]triazolo[1,5-c]quinazolin-5-amine] — 4.7-fold higher, 149 nM
- COc1cccc2c1nc(N)n1nc(CN3Cc4nnc(C(F)(F)F)n4C(C)(C)C3)nc21 [Ex-145, 2-((5,5-dimethyl-3-(trifluoromethyl)-5,6-dihydro-[1,2,4]triazolo[4,3-a]pyrazin-7(8H)-yl)methyl)-7-methoxy-[1,2,4]triazolo[1,5-c]quinazolin-5-amine] — 1.5-fold higher, 47.8 nM
- COc1cccc2c1nc(N)n1nc(CN3CCn4c(C(F)(F)F)nnc4C3(C)C)nc21 [Ex-146, 2-((8,8-dimethyl-3-(trifluoromethyl)-5,6-dihydro-[1,2,4]triazolo[4,3-a]pyrazin-7(8H)-yl)methyl)-7-methoxy-[1,2,4]triazolo[1,5-c]quinazolin-5-amine] — within 1.5-fold, 29.9 nM
- COc1cccc2c1nc(N)n1nc(CN3CCc4c(Br)ccnc4C3)nc21 [Ex-148] — 4.4-fold lower, 7.2 nM
- COc1cccc2c1nc(N)n1nc(CN3Cc4nc(C(C)C)sc4C3)nc21 [Ex-149, 2-((2-isopropyl-4H-pyrrolo[3,4-d]thiazol-5(6H)-yl)methyl)-7-methoxy-[1,2,4]triazolo[1,5-c]quinazolin-5-amine] — 1.8-fold lower, 17.5 nM
- COc1cccc2c1nc(N)n1nc(CN3CCc4nccnc4C3)nc21 [Ex-150, 2-((7,8-dihydropyrido[4,3-b]pyrazin-6(5H)-yl)methyl)-7-methoxy-[1,2,4]triazolo[1,5-c]quinazolin-5-amine] — within 1.5-fold, 27.6 nM
- COc1cccc2c1nc(N)n1nc(CN3CCc4cncnc4C3)nc21 [Ex-151, 2-((5,6-dihydropyrido[3,4-d]pyrimidin-7(8H)-yl)methyl)-7-methoxy-[1,2,4]triazolo[1,5-c]quinazolin-5-amine] — 1.5-fold higher, 48.2 nM
- COc1cccc2c1nc(N)n1nc(CN3Cc4cnc(C(F)(F)F)nc4C3)nc21 [Ex-152, 7-methoxy-2-((2-(trifluoromethyl)-5H-pyrrolo[3,4-d]pyrimidin-6(7H)-yl)methyl)-[1,2,4]triazolo[1,5-c]quinazolin-5-amine] — within 1.5-fold, 27.8 nM
- COc1cccc2c1nc(N)n1nc(CN3CCn4c(nnc4C(F)(F)F)C3)nc21 [Ex-153, 7-methoxy-2-((3-(trifluoromethyl)-5,6-dihydro[1,2,4]triazolo[4,3-a]pyrazin-7(8H)-yl)methyl)-[1,2,4]triazolo[1,5-c]quinazolin-5-amine] — 9-fold higher, 284 nM
- COc1cccc2c1nc(N)n1nc(CN3CCc4cc(Br)cnc43)nc21 [Ex-155, 2-((5-bromo-2,3-dihydro-1H-pyrrolo[2,3-b]pyridin-1-yl)methyl)-7-methoxy-[1,2,4]triazolo[1,5-c]quinazolin-5-amine] — 14-fold lower, 2.2 nM
- COc1cccc2c1nc(N)n1nc(CN3CCCc4ccc(C)nc43)nc21 [Ex-156] — 5.3-fold lower, 6 nM
- COc1cccc2c1nc(N)n1nc(CN3CCCCc4cccnc43)nc21 [Ex-157, 2-((7,8-dihydro-5H-pyrido[2,3-b]azepin-9(6H)-yl)methyl)-7-methoxy-[1,2,4]triazolo[1,5-c]quinazolin-5-amine] — 20-fold lower, 1.6 nM
